# Assays:
# Assay type in all cases: cell-based
# NCI-H1975 = test: Growth inhibition of cancer cell lines, 72 hrs (CellTiter-Glo); settings: Homo sapiens, lung, non small cell carcinoma
# Method: (§1) Example C: Inhibition of Cancer Cell Growth by Treatment with PARP7 Inhibitors
# (§2) Table A-2 and Table A-3 (below) represents the concentration that causes 50% growth inhibition (GI50) in a panel of cancer cell lines with Compound 18B and Compound 561. Cells were plated into 384-well plates at a pre-specified density in fetal bovine serum-containing media. Cells were treated with compound or vehicle (DMSO) 24 hrs later, and a day zero plate was collected for analysis. Test compound plates were incubated continuously for 72 hrs (Table A-2) or 144 hours (Table A-3) cell growth was assessed using a luminescent cell viability assay (CellTiter-Glo, Promega). The GI50was determined by correcting for the cell count at time zero (time of treatment) and plotting data as percent growth relative to vehicle-treated cells.
# GSU = test: as above; settings: stomach, adenocarcinoma
# Method: as §1, §2
# SW 900 = test: as above; settings: Homo sapiens, SW900, lung, squamous cell carcinoma
# Method: as §1, §2
# Hs 578T = test: as above; settings: Homo sapiens, breast, ductal carcinoma
# Method: as §1, §2
# HDQ-P1 = test: as above; settings: Homo sapiens, breast, ductal carcinoma
# Method: as §1, §2
# NCI-H2347 = test: as above; settings: Homo sapiens, lung, adenocarcinoma
# Method: as §1, §2
# YD-10B = test: as above; settings: upper aerodigestive tract, squamous cell carcinoma
# Method: as §1, §2
# SNU-719 = test: as above; settings: stomach, not specified
# Method: as §1, §2
# HCC-2279 = test: as above; settings: lung, adenocarcinoma
# Method: as §1, §2
# SW620 = test: as above; settings: Homo sapiens, SW-620, large intestine, adenocarcinoma
# Method: as §1, §2
# LS123 = test: as above; settings: Homo sapiens, LS-123, large intestine, adenocarcinoma
# Method: as §1, §2
# HCC1937 = test: as above; settings: Homo sapiens, breast, ductal carcinoma
# Method: as §1, §2
# NCI-H1373 [1] = test: as above; settings: Homo sapiens, lung, adenocarcinoma
# Method: as §1, §2
# CFPAC-1 = test: as above; settings: Homo sapiens, pancreas, ductal carcinoma
# Method: as §1, §2
# NCI-H1437 [2] = test: as above; settings: Homo sapiens, lung, adenocarcinoma
# Method: as §1, §2
# HCC-1195 = test: as above; settings: lung, mixed adenosquamous carcinoma
# Method: as §1, §2
# EFE-184 = test: as above; settings: Homo sapiens, endometrium, not specified
# Method: as §1, §2
# CAL 27 = test: as above; settings: Homo sapiens, upper aerodigestive tract, squamous cell carcinoma
# Method: as §1, §2
# KMBC-2 = test: as above; settings: urinary tract, not specified
# Method: as §1, §2
# FaDu = test: as above; settings: Homo sapiens, upper aerodigestive tract, squamous cell carcinoma
# Method: as §1, §2
# NCI-H1963 = test: as above; settings: Homo sapiens, lung, small cell carcinoma
# Method: as §1, §2
# T3M-10 = test: as above; settings: lung, large cell carcinoma
# Method: as §1, §2
# OVISE = test: as above; settings: ovary, clear cell carcinoma
# Method: as §1, §2
# NCI-H647 = test: Growth inhibition of cancer cell lines, 144 hours (CellTiter-Glo); settings: Homo sapiens, lung adenosquamous carcinoma
# Method: as §1, §2
# COLO 680N = test: as above; settings: Homo sapiens, esophageal squamous cell carcinoma
# Method: as §1, §2
# NCI-H1648 = test: as above; settings: Homo sapiens, lung adenocarcinoma
# Method: as §1, §2
# SK-MES-1 = test: as above; settings: Homo sapiens, squamous cell lung carcinoma
# Method: as §1, §2
# EBC-1 = test: as above; settings: Homo sapiens, squamous cell lung carcinoma
# Method: as §1, §2
# H4 = test: as above; settings: neuroglioma
# Method: as §1, §2
# SW900 = test: as above; settings: Homo sapiens, squamous cell lung carcinoma
# Method: as §1, §2
# NCI-H2009 = test: as above; settings: Homo sapiens, lung adenocarcinoma
# Method: as §1, §2
# Panc 03.27 = test: as above; settings: Homo sapiens, PANC-03-27, pancreatic adenocarcinoma
# Method: as §1, §2
# NCI-H1944 = test: as above; settings: Homo sapiens, lung adenocarcinoma
# Method: as §1, §2
# HCC827 = test: as above; settings: Homo sapiens, lung adenocarcinoma
# Method: as §1, §2
# NCI-H2066 = test: as above; settings: squamous cell lung carcinoma
# Method: as §1, §2
# LN-18 = test: as above; settings: Homo sapiens, glioblastoma
# Method: as §1, §2
# TUHR10TKB = test: as above; settings: renal cell carcinoma
# Method: as §1, §2
# NCI-H1373 [3] = test: as above; settings: Homo sapiens, lung adenocarcinoma
# Method: as §1, §2
# MDA-MB-468 = test: as above; settings: Homo sapiens, breast adenocarcinoma
# Method: as §1, §2
# KALS-1 = test: as above; settings: Homo sapiens, glioblastoma
# Method: as §1, §2
# GCT = test: as above; settings: Homo sapiens, undifferentiated pleiomorphic sarcoma
# Method: as §1, §2
# NCI-H1437 [4] = test: as above; settings: Homo sapiens, lung adenocarcinoma
# Method: as §1, §2
# SK-MEL-2 = test: as above; settings: Homo sapiens, malignant melanoma
# Method: as §1, §2
# SCaBER = test: as above; settings: Homo sapiens, bladder squamous cell carcinoma
# Method: as §1, §2
structure (smiles),measurement,setting,value
"N#Cc1ccc(N2CCN(C(=O)c3cccc(OC[C@@H]4c5ccccc5CN4c4cn[nH]c(=O)c4C(F)(F)F)c3)CC2)nc1 (single isomer, unassigned) [Example 18 Isomer B]",GI50,NCI-H1975,100 to 1000 nM
same,GI50,GSU,< 100 nM
same,GI50,SW 900,< 100 nM
same,GI50,Hs 578T,100 to 1000 nM
same,GI50,HDQ-P1,100 to 1000 nM
same,GI50,NCI-H2347,< 100 nM
same,GI50,YD-10B,< 100 nM
same,GI50,SNU-719,100 to 1000 nM
same,GI50,HCC-2279,100 to 1000 nM
same,GI50,SW620,100 to 1000 nM
same,GI50,LS123,100 to 1000 nM
same,GI50,HCC1937,< 100 nM
same,GI50,NCI-H1373 [1],< 100 nM
same,GI50,CFPAC-1,100 to 1000 nM
same,GI50,NCI-H1437 [2],< 100 nM
same,GI50,HCC-1195,100 to 1000 nM
same,GI50,EFE-184,< 100 nM
same,GI50,CAL 27,< 100 nM
same,GI50,KMBC-2,100 to 1000 nM
same,GI50,FaDu,100 to 1000 nM
same,GI50,NCI-H1963,< 100 nM
same,GI50,T3M-10,< 100 nM
same,GI50,OVISE,100 to 1000 nM
"C[C@@H](COCCC(=O)N1CCN(c2ncc(C(F)(F)F)cn2)CC1)Nc1cn[nH]c(=O)c1C(F)(F)F [Example 561, 5-[[(2S)-1-(3-oxo-3-[4-[5-(trifluoromethyl)pyrimidin-2-yl]piperazin-1-yl]propoxy)propan-2-yl]amino]-4-(trifluoromethyl)-2,3-dihydropyridazin-3-one]",GI50,NCI-H647,< 100 nM
same,GI50,COLO 680N,≥ 1000 nM
same,GI50,NCI-H1648,≥ 1000 nM
same,GI50,SK-MES-1,≥ 1000 nM
same,GI50,EBC-1,< 100 nM
same,GI50,H4,≥ 1000 nM
same,GI50,SW900,100 to 1000 nM
same,GI50,NCI-H2009,≥ 1000 nM
same,GI50,Panc 03.27,< 100 nM
same,GI50,NCI-H1944,≥ 1000 nM
same,GI50,HCC827,< 100 nM
same,GI50,NCI-H2066,≥ 1000 nM
same,GI50,LN-18,≥ 1000 nM
same,GI50,TUHR10TKB,< 100 nM
same,GI50,NCI-H1373 [3],< 100 nM
same,GI50,MDA-MB-468,≥ 1000 nM
same,GI50,KALS-1,≥ 1000 nM
same,GI50,GCT,< 100 nM
same,GI50,NCI-H1437 [4],≥ 1000 nM
same,GI50,SK-MEL-2,≥ 1000 nM
same,GI50,SCaBER,≥ 1000 nM
